One may read the IC50 as the concentration that gives 50% inhibition.

The values below come from patent US9751887B2, “Imidazo[1,2-b]pyridazine derivatives as kinase inhibitors” (Daiichi Sankyo Company, Limited, priority 2012, dated 2017).

Where two headings read alike, the source gives them in different places.

For test [1], the target named is T1, ROS1 (Homo sapiens, UniProt P08922).
T1 construct: purchased Carna Biosciences 08-163
Briefly: ROS1 kinase inhibitory activity evaluation (mobility shift, EZ Reader II). Format: biochemical. As to conditions: ROS1 25 pg/μL, FL-Peptide 22 substrate, three separate measurements. Here is the method: Next, a substrate reaction solution was prepared. […] Then, the reaction stop solution was added thereto at a concentration of 40 μL/well. Substrate phosphorylation intensity was measured using EZ Reader II (Caliper Life Sciences).

The target of test [2] is T1, ROS1. Briefly: ROS1 autophosphorylation inhibitory activity evaluation (ADP-Glo). Format: biochemical. As to conditions: 200 nM inactive ROS1, ATP 1 mM, 25° C. 1.5 hours, ADP generated, four separate measurements. Here is the method: Fifty mM HEPES (pH 7.5), 10 mM MgCl2, 0.01% Brij-58, and 2.5 mM DTT were mixed to prepare an enzymatic reaction solution. […] ATP (final concentration: 1 mM) was further added thereto at a concentration of 2.5 μL/well. The resulting plate was left standing at 25° C. for 1.5 hours to cause enzymatic reaction. After the completion of enzymatic reaction, ADP-Glo Reagent-1 (Promega, V9103) was added thereto at a concentration of 2.5 μL/well, and the plate was left standing at room temperature for 60 minutes. Then, ADP-Glo Reagent-2 (Promega) was added thereto at a concentration of 5 μL/well, and the plate was left standing at room temperature for 60 minutes. The amount of ADP generated by the autophosphorylation of ROS1 was measured using EnVision (PerkinElmer Japan). The amount of ADP generated in four separate measurements was defined as the autophosphorylation intensity of ROS1. IC50 values were calculated by curve fitting using GraphPad Prism version 4 (GraphPad software).
A general note: In ADP-Glo the light output rises with the ADP produced.

Test [3] relates to HCC78 cells having ROS1 fusion gene. In words: HCC78 cell growth assay (CellTiter-Glo). Format: cell-based. The following applies: Homo sapiens, 72 hours culture, 2% FBS medium, luminescence, four separate measurements, read-out: growth inhibitory effect on HCC78 cells having ROS1 fusion gene IC50. Here is the method: Each compound of the present invention was assayed for its cell growth inhibitory effect using HCC78 cells having ROS1 fusion gene.
The suspension was dispensed at a concentration of 100 μL/well to a 96-well culture plate for cell culture (SUMITOMO BAKELITE, Cat No MS-0096S) (hereinafter, referred to as an assay plate). […] In this context, the final concentration of DMSO was set to 0.4%. Then, the cells were cultured for 72 hours in a CO2 incubator.
CellTiter-Glo Luminescent Cell Viability Assay reagent (Promega, Cat No G7571) was dispensed at a concentration of 100 μL/well to the assay plate. The contents in each well were reacted at room temperature for 10 minutes while stirred using a plate mixer. […] The luminescence intensity of each well was measured using EnVision. The luminescence intensity of each well obtained in four separate measurements was defined as the number of cells. IC50 values were calculated by curve fitting using GraphPad Prism version 4.

T1 sequence (P08922 28-2347): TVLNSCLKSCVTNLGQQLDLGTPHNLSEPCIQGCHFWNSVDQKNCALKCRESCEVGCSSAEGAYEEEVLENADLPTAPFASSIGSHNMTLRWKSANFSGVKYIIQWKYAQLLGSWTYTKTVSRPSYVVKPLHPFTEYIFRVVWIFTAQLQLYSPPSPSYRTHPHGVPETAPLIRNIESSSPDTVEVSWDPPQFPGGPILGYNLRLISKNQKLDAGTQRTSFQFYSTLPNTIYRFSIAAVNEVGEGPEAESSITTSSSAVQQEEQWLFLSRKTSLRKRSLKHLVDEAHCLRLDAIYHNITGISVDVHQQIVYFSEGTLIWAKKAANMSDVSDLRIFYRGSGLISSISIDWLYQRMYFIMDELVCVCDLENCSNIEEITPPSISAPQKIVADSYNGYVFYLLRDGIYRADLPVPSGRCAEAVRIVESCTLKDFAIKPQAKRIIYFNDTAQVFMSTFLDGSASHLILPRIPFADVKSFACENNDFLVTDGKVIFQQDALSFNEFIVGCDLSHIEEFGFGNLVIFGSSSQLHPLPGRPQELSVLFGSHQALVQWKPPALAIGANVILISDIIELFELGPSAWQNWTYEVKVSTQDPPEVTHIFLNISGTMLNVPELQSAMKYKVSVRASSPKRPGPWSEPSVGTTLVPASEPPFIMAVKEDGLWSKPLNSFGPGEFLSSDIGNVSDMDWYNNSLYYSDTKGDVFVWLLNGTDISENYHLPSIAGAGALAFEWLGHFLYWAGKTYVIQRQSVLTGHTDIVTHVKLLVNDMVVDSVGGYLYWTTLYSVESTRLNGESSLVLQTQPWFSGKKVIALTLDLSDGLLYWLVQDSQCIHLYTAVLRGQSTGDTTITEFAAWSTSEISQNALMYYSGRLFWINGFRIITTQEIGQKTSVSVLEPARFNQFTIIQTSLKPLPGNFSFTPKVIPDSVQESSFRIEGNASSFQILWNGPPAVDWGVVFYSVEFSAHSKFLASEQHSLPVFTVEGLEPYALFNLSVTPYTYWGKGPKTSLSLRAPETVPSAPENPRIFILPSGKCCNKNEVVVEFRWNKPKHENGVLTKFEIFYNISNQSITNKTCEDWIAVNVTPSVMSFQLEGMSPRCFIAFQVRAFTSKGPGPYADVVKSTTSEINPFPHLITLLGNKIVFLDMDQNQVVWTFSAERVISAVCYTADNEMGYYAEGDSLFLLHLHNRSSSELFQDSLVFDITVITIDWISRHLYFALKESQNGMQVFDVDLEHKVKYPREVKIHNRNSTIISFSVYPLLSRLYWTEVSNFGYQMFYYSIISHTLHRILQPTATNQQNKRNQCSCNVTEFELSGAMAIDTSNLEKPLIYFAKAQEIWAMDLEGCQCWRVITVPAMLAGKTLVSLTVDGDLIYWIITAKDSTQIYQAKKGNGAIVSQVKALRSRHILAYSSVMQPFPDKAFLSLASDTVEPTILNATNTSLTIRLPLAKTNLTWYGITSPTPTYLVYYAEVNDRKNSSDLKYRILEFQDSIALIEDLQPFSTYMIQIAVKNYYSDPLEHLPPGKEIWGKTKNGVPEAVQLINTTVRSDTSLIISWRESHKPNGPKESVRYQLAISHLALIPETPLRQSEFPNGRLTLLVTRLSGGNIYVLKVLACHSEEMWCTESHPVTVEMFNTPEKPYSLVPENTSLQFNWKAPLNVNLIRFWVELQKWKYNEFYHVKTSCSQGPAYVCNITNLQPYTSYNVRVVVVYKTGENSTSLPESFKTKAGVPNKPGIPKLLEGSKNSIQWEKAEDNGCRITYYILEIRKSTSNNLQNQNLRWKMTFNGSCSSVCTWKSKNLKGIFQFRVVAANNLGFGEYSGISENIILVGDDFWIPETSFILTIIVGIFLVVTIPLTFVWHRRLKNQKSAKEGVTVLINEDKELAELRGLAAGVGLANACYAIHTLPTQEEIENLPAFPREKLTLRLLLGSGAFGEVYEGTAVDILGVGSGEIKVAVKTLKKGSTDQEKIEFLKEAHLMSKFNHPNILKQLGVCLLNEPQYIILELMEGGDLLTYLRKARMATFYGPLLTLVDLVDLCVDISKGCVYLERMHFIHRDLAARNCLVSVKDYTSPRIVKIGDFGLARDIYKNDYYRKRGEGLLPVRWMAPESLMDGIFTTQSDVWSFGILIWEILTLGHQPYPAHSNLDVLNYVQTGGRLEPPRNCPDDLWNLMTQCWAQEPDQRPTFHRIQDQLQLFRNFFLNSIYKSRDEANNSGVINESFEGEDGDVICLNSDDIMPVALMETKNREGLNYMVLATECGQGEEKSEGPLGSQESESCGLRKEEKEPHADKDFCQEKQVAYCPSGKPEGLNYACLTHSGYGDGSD

In the case of `NC1CC(=O)N(c2ccc(-c3cnc4ccc(OCc5cccc(F)c5)nn34)cc2)C1` (stereo not drawn) [Example 73, 4-Amino-1-[4-[6-[(3-fluorophenyl)methoxy]imidazo[1,2-b]pyridazin-3-yl]phenyl]pyrrolidin-2-one], the concentration for half-maximal inhibition (IC50) on ROS1 [1] was 1 to 10 nM; at ROS1 [2], below 20 nM; in test [3] (HCC78, 72 h), 20 to 100 nM.
The like results for `Fc1cccc(COc2ccc3ncc(-c4ccc(OC[C@H]5CCCN5)cc4)n3n2)c1` [Example 11, 6-[(3-Fluorophenyl)methoxy]-3-[4-[[(2R)-pyrrolidin-2-yl]methoxy]phenyl]imidazo[1,2-b]pyridazine] were, in that order, 1 to 10 nM, 20 to 100 nM and 100 to 600 nM.
With `C[C@@H](Nc1ccc2ncc(-c3ccc(O[C@H]4C[C@H](N)C4)cc3)n2n1)c1cccc(F)c1` [Example 51], the IC50 was 1 to 10 nM on ROS1 [1]; below 20 nM against ROS1 [2]; 20 to 100 nM in test [3] (HCC78, 72 h).
The like results for `NC1CC(=O)N(c2ccc(-c3cnc4ccc(NCc5ccccc5)nn34)cc2)C1` (stereo not drawn) [Example 72, 4-Amino-1-[4-[6-(benzylamino)imidazo[1,2-b]pyridazin-3-yl]phenyl]pyrrolidin-2-one] were, in that order, below 1 nM, below 20 nM and below 20 nM.
The like results for `CN(Cc1cncc(F)c1)c1ccc2ncc(-c3ccc(N4CC(C)(N)CC4=O)cc3)n2n1` (single isomer, unassigned) [Example 124, 4-Amino-1-[4-[6-[(5-fluoro-3-pyridyl)methyl-methylamino]imidazo[1,2-b]pyridazin-3-yl]phenyl]-4-methylpyrrolidin-2-one] were, in that order, 1 to 10 nM, below 20 nM and below 20 nM.
The like results for `C[C@@H](Nc1ccc2ncc(-c3ccc(F)c(OC[C@@H]4CCN4)c3)n2n1)c1cccc(F)c1` [Example 64, 3-[3-[[(2S)-Azetidin-2-yl]methoxy]-4-fluoro-phenyl]-N-[(1R)-1-(3-fluorophenyl)ethyl]imidazo[1,2-b]pyridazin-6-amine] were, in that order, 1 to 10 nM, 100 to 150 nM and 100 to 600 nM.
As to `N[C@H]1CC(=O)N(c2ccc(-c3cnc4ccc(OCc5cccc(F)c5)nn34)cc2)C1` [Example 76, (4S)-4-Amino-1-[4-[6-[(3-fluorophenyl)methoxy]imidazo[1,2-b]pyridazin-3-yl]phenyl]pyrrolidin-2-one], the IC50 at ROS1 [1] is below 1 nM; at ROS1 [2], below 20 nM; in test [3] (HCC78, 72 h), 20 to 100 nM.
For `CC(Oc1ccc2ncc(-c3ccc(N4C[C@@H](N)CC4=O)cc3)n2n1)c1cncc(F)c1` (stereo partly drawn) [Example 107] the same measures were below 1 nM, below 20 nM and below 20 nM.
In the case of `CN(Cc1cccnc1)c1ccc2ncc(-c3ccc(N4C[C@@H](N)CC4=O)cc3)n2n1` [Example 117, (4S)-4-Amino-1-[4-[6-[methyl(3-pyridylmethyl)amino]imidazo[1,2-b]pyridazin-3-yl]phenyl]pyrrolidin-2-one], the figures for the half-maximal inhibitory concentration (IC50) (on ROS1 [1]; against ROS1 [2]; in test [3] (HCC78)) were 1 to 10 nM, 20 to 100 nM and 20 to 100 nM, respectively.
Take `CCN(Cc1cccc(F)c1)c1ccc2ncc(-c3ccc(N4C[C@@H](N)CC4=O)cc3)n2n1` [Example 100]: the 50% inhibitory concentration (IC50) was 1 to 10 nM at ROS1 [1]; below 20 nM against ROS1 [2]; 20 to 100 nM in test [3] (HCC78, 72 h).
The like results for `CN(Cc1cccc(F)c1F)c1ccc2ncc(-c3ccc(N4C[C@@H](N)CC4=O)nc3)n2n1` [Example 132, (4S)-4-Amino-1-[5-[6-[(2,3-difluorophenyl)methyl-methylamino]imidazo[1,2-b]pyridazin-3-yl]-2-pyridyl]pyrrolidin-2-one] were, in that order, 1 to 10 nM, 20 to 100 nM and 20 to 100 nM.
In the case of `C[C@@H](Nc1ccc2ncc(-c3ccc(OC[C@H](N)CO)cc3)n2n1)c1cccc(F)c1` [Example 59, (2R)-2-Amino-3-[4-[6-[[(1R)-1-(3-fluorophenyl)ethyl]amino]imidazo[1,2-b]pyridazin-3-yl]phenoxy]propan-1-ol], the IC50 on ROS1 [1] was below 1 nM; against ROS1 [2], below 20 nM; in test [3] (HCC78, 72 h), below 20 nM.
In the case of `Cc1ccc(F)cc1COc1ccc2ncc(-c3ccc(N4C[C@@H](N)CC4=O)cc3)n2n1` [Example 103, (4S)-4-Amino-1-[4-[6-[(5-fluoro-2-methylphenyl)methoxy]imidazo[1,2-b]pyriazin-3-yl]phenyl]pyrrolidin-2-one], the IC50 on ROS1 [1] was 1 to 10 nM; on ROS1 [2], 20 to 100 nM; in test [3] (HCC78, 72 h), 20 to 100 nM.
Take `CN1CCC[C@H]1COc1cccc(-c2cnc3ccc(NCc4ccccc4)nn23)c1` [Example 8, N-Benzyl-3-[3-[[(2S)-1-methylpyrrolidin-2-yl]methoxy]phenyl]imidazo[1,2-b]pyridazin-6-amine]: the half-inhibitory concentration (IC50) at ROS1 [1] lay within 1 to 10 nM; against ROS1 [2], 20 to 100 nM; in test [3] (HCC78, 72 h), 20 to 100 nM.
For `NCC1CC(=O)N(c2ccc(-c3cnc4ccc(OCc5cccc(F)c5)nn34)cc2)C1` (stereo not drawn) [Example 74, 4-(Aminomethyl)-1-[4-[6-[(3-fluorophenyl)methoxy]imidazo[1,2-b]pyridazin-3-yl]phenyl]pyrrolidin-2-one], the 50% inhibitory concentration (IC50) on ROS1 [1] lay in the range of 1 to 10 nM; against ROS1 [2] it was 100 to 150 nM; in test [3] (HCC78, 72 h) it was 100 to 600 nM.
The like results for `CC[C@@H](N)COc1ccc(-c2cnc3ccc(N[C@H](C)c4cccc(F)c4)nn23)cc1` [Example 52, 3-[4-[(2R)-2-Aminobutoxy]phenyl]-N-[(1R)-1-(3-fluorophenyl)ethyl]imidazo[1,2-b]pyridazin-6-amine] were, in that order, below 1 nM, below 20 nM and 20 to 100 nM.
The like results for `CNCCCOc1cccc(-c2cnc3ccc(N[C@H](C)c4cccc(F)c4)nn23)c1` [Example 66, N-[(1R)-1-(3-Fluorophenyl)ethyl]-3-[3-[3-(methylamino)propoxy]phenyl]imidazo[1,2-b]pyridazin-6-amine] were, in that order, 1 to 10 nM, below 20 nM and 20 to 100 nM.
For `C[C@@H](Nc1ccc2ncc(-c3cccc(N4C[C@@H](N)CC4=O)c3)n2n1)c1cccc(F)c1` [Example 91, (4S)-4-Amino-1-[3-[6-[[(1R)-1-(3-fluorophenyl)ethyl]amino]imidazo[1,2-b]pyridazin-3-yl]phenyl]pyrrolidin-2-one] the same measures were 1 to 10 nM, below 20 nM and 20 to 100 nM.
Turning to `C[C@H](O)[C@@H](N)COc1ccc(-c2cnc3ccc(N[C@H](C)c4cccc(F)c4)nn23)cc1` [Example 55, (2S,3S)-3-Amino-4-[4-[6-[[(1R)-1-(3-fluorophenyl)ethyl]amino]imidazo[1,2-b]pyridazin-3-yl]phenoxy]butan-2-ol], the IC50 on ROS1 [1] is below 1 nM; against ROS1 [2], below 20 nM; in test [3] (HCC78, 72 h) it was below 20 nM.
Turning to `CN(Cc1cc(F)ccc1F)c1ccc2ncc(-c3ccc(N4C[C@@H](N)CC4=O)nc3)n2n1` [Example 129, (4S)-4-Amino-1-[5-[6-[(2,5-difluorophenyl)methyl-methylamino]imidazo[1,2-b]pyridazin-3-yl]-2-pyridyl]pyrrolidin-2-one], the IC50 at ROS1 [1] was in the range of 1 to 10 nM; on ROS1 [2], 20 to 100 nM; in test [3] (HCC78, 72 h), 20 to 100 nM.
In the case of `CN(Cc1cccc(F)c1)c1ccc2ncc(-c3ccc(N4C[C@@H](N)CC4=O)c(C#N)c3)n2n1` [Example 131, 2-[(4S)-4-Amino-2-oxopyrrolidin-1-yl]-5-[6-[(3-fluorophenyl)methyl-methylamino]imidazo[1,2-b]pyridazin-3-yl]benzonitrile], the IC50 was 1 to 10 nM at ROS1 [1]; below 20 nM against ROS1 [2]; 20 to 100 nM in test [3] (HCC78, 72 h).
On to `CNC(C)COc1ccc(-c2cnc3ccc(N[C@H](C)c4cccc(F)c4)nn23)cc1` (stereo partly drawn) [Example 38, N-[(1R)-1-(3-Fluorophenyl)ethyl]-3-[4-[2-(methylamino)propoxy]phenyl]imidazo[1,2-b]pyridazin-6-amine], for which the IC50 on ROS1 [1] was below 1 nM; against ROS1 [2] it was below 20 nM; in test [3] (HCC78, 72 h) it was below 20 nM.
